15 molecules from patent US11576911B2, “Composition and method for treatment of depression and psychosis in humans” (Glytech LLC, priority 2012, dated 2023) can be followed below.

In the assay the test system is Male C57Bl/6J mice. Nature of the assay: Elevated plus maze (EPM), DOI 2 mg/kg in all conditions. It counts as in vivo. To be noted: for Effect on distance travelled in open arm / % time in open arm of EPM, in words: agent alone vs control, doses of Tables 1 and 2; for Effect on open arm behavior in the EPM, in words: non-competitive NMDAR antagonist with MDL100907 .3 mg/kg (Table 1 lines 8,9); for Total distance travelled in the EPM, in words: with MDL100907 .3 mg/kg (Table 1 lines 8,9); for DTO Mean / PCT Mean: Table 2; for Reversal of 5-HT2A antagonist induced reductions in open arm measures of the EPM, in words: NMDAR antagonists, summary of Example 1; for Mean distance travelled in the open arm of the EPM: Table 6, DOI 2 mg/kg added; for Distance travelled in the open arm relative to the vehicle, in words: Table 6 doses, DOI 2 mg/kg added in all conditions.

Consider `CNC1(c2ccccc2Cl)CCCCC1=O` (racemic) [ketamine, (R,S)-2-(2-Chlorphenyl)-2-(methylamino)cyclohexan-1-on], for which the “Effect on distance travelled in open arm / % time in open arm of EPM, in words” value is “does not significantly alter either distance traveled in the open arm or % time in the open arm”; the “Effect on open arm behavior in the EPM, in words” value was “did not significantly affect open arm behavior”; the “Total distance travelled in the EPM, in words” value is on record as “reduced total distance travelled”. Besides, for the setting “Table 1, 10 mg/kg ip alone”, the “Distance Traveled Open (DTO) Mean” value amounted to 194.5 and the “Percent open (PCT) Mean” value was 40.3%.
Regarding `O=C1CCc2ccc(OCCCCN3CCN(c4cccc(Cl)c4Cl)CC3)cc2N1` [Aripiprazole], the “Effect on distance travelled in open arm / % time in open arm of EPM, in words” value was “significantly decreased distance travelled in the open arm, but not % of time in the open arm”. Besides, for the setting “1 mg/kg alone”, the “DTO Mean” value stood at 113.9 and the “PCT Mean” value is reported as 34.9%.
Regarding `C[C@@H]([C@@H](O)c1ccc(O)cc1)N1CCC(O)(c2ccccc2)CC1` [CP101606], the “Reversal of 5-HT2A antagonist induced reductions in open arm measures of the EPM, in words” value is “Pro-therapeutic effects”.
In the case of `CN(C)C(=O)N[C@H]1CC[C@H](CCN2CCN(c3cccc(Cl)c3Cl)CC2)CC1` [Cariprazine], the “Mean distance travelled in the open arm of the EPM” value (“Mean distance travelled” for short) is 186.00 (0.03 mg/kg), 174.30 (0.1 mg/kg) and 69.70 (1 mg/kg).
In the case of `N#Cc1c[nH]c2c(C(=O)N3CCN(CCc4ccc(F)cc4)CC3)cccc12` [EMD281014], the “Mean distance travelled” value runs as follows: (1 mg/kg) 111.00; (3 mg/kg) 42.70; (10 mg/kg) 44.80.
In the case of `CNCCC(Oc1ccc(C(F)(F)F)cc1)c1ccccc1` (stereo not drawn) [Fluoxetine], the “Distance travelled in the open arm relative to the vehicle, in words” value is given as “no significant effects”. For the same molecule, under “10 mg/kg”, the “Mean distance travelled” value came out at 216.70.
The like results for `CN(C)CCCN1c2ccccc2CCc2ccccc21` [Imipramine] were, in that order, “no significant effects” and 235.00.
For the molecule `CCN(CC)C(=O)[C@@]1(c2ccccc2)C[C@H]1CN` [Levomilnacipran], the “Distance travelled in the open arm relative to the vehicle, in words” value is recorded as “no significant effects”. For the same molecule, the “Mean distance travelled” value (40 mg/kg) is 237.90.
`c1ccc(C2(N3CCCCC3)CCCCC2)cc1` [PCP]: the “Reversal of 5-HT2A antagonist induced reductions in open arm measures of the EPM, in words” value was “worsened performance relative to DCS”; the “Effect on open arm behavior in the EPM, in words” value is “did not significantly affect open arm behavior”; the “Total distance travelled in the EPM, in words” value is recorded as “reduced total distance travelled”.
`CC(C)COc1ccc(CNC(=O)N(Cc2ccc(F)cc2)C2CCN(C)CC2)cc1` [Pimavanserin]: the “Distance travelled in the open arm relative to the vehicle, in words” value is given as “significantly reduced”. The “Mean distance travelled” value (0.3 mg/kg) is given as 150.20. For the same molecule, where the note is “1 mg/kg”, the “Mean distance travelled” value amounted to 204.10. Moreover, the “Mean distance travelled” value (10 mg/kg) amounted to 66.50.
In the case of `OCCOCCN1CCN(C2=Nc3ccccc3Sc3ccccc32)CC1` [Quetiapine], for the setting “30 mg/kg alone”, the “DTO Mean” value is listed as 42.8 and the “PCT Mean” value amounted to 9.0%.
Regarding `Cc1nc2n(c(=O)c1CCN1CCC(c3noc4cc(F)ccc34)CC1)CCCC2` [Risperidone], under “1 mg/kg alone”, the “DTO Mean” value turned out to be 0.0 and the “PCT Mean” value turned out to be 0.0%. For the same molecule, the “Mean distance travelled” value (1 mg/kg) stood at 5.30.
As to `CN(C)CCO/N=C(/C=C/c1ccc(O)cc1)c1ccccc1F` [SR46349B], the “Mean distance travelled” value (0.3 mg/kg) came to 127.10, the “Mean distance travelled” value (1 mg/kg) was 98.00 and the “Mean distance travelled” value (10 mg/kg) came out at 105.90.
Turning to `COc1ccc(C(CN(C)C)C2(O)CCCCC2)cc1` (stereo not drawn) [Venflaxine], the “Mean distance travelled” value (40 mg/kg) is reported as 224.60.
Take `Cc1ccc(Sc2ccccc2N2CCNCC2)c(C)c1` [Vortioxetine]: the “Distance travelled in the open arm relative to the vehicle, in words” value was “no significant effects”. The “Mean distance travelled” value (10 mg/kg) is 237.90.
